Measured values reported in US20220168431A1, “METHODS OF TREATING CANCER USING TRIMETAZIDINE-BASED COMPOUNDS” (IMBRIA PHARMACEUTICALS, INC., priority 2019, published 2022).

Assays:
Settings in all cases: 10 μM CV-8814
[1] = biological target: Muscarinic M4 (Homo sapiens, UniProt P08173); assay type: binding
[2] = biological target: Angiotensin AT1 (Homo sapiens, UniProt P30556); assay type: binding
[3] = biological target: Melanocortin MC1 (Homo sapiens, UniProt Q01726); assay type: binding
[4] = biological target: Estrogen ERα (Homo sapiens, UniProt P03372); assay type: binding
[5] = biological target: Cannabinoid CB2 (Homo sapiens, UniProt P34972); assay type: binding
[6] = biological target: Cholecystokinin CCK1 (CCKA) (Homo sapiens, UniProt P32238); assay type: binding
[7] = biological target: Serotonin (5-Hydroxytryptamine) 5-HT1A (Homo sapiens, UniProt P08908); assay type: binding
[8] = biological target: Histamine H2 (Homo sapiens, UniProt P25021); assay type: binding
[9] = biological target: Glutamate, NMDA, Glycine (Rattus norvegicus, UniProt P35439); assay type: binding
[10] = biological target: Glutamate, Metabotropic, mGlu5 (Homo sapiens, UniProt P41594); assay type: binding
[11] = biological target: Histamine H1 (Homo sapiens, UniProt P35367); assay type: binding
[12] = biological target: PPARγ (Homo sapiens, UniProt P37231); assay type: binding
[13] = biological target: Chemokine CXCR2 (IL-8RB) (Homo sapiens, UniProt P25025); assay type: binding
[14] = biological target: Peptidase, CTSG (Cathepsin G) (Homo sapiens, UniProt P08311); assay type: biochemical
[15] = biological target: Adrenergic α1D (Homo sapiens, UniProt P25100); assay type: binding
[16] = biological target: Adrenergic α1A (Rattus norvegicus, UniProt P43140); assay type: binding
[17] = biological target: Opiate μ (OP3, MOP) (Homo sapiens, UniProt P35372); assay type: binding
[18] = biological target: Transporter, Serotonin (5-Hydroxytryptamine) (SERT) (Homo sapiens, UniProt P31645); assay type: binding
[19] = biological target: Adrenergic α2B (Homo sapiens, UniProt P18089); assay type: binding
[20] = biological target: Muscarinic M2 (Homo sapiens, UniProt P08172); assay type: binding
[21] = biological target: Cholecystokinin CCK2 (CCKB) (Homo sapiens, UniProt P32239); assay type: binding
[22] = biological target: Protein Tyrosine Kinase, Insulin Receptor (Homo sapiens, UniProt P06213); assay type: biochemical
[23] = biological target: Muscarinic M3 (Homo sapiens, UniProt P20309); assay type: binding
[24] = biological target: Opiate κ (OP2, KOP) (Homo sapiens, UniProt P41145); assay type: binding
[25] = biological target: Tachykinin NK1 (Homo sapiens, UniProt P25103); assay type: binding

Measured: inhibition at 10 µM

Histamine H1, sequence (P35367 whole entry): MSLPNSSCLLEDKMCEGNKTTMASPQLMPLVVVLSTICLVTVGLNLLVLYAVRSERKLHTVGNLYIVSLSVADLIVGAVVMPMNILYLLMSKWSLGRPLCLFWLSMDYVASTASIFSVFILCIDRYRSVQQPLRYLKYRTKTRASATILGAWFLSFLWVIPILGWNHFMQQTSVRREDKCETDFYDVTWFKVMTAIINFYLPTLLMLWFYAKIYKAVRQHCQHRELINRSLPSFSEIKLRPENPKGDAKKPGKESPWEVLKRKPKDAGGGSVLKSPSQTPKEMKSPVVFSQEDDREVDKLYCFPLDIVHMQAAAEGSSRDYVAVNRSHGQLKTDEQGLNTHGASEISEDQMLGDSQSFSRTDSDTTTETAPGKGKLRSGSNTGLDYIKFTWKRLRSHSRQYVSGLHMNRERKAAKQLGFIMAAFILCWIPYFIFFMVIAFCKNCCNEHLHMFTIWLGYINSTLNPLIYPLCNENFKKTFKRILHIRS
Adrenergic α2B, sequence (P18089 whole entry): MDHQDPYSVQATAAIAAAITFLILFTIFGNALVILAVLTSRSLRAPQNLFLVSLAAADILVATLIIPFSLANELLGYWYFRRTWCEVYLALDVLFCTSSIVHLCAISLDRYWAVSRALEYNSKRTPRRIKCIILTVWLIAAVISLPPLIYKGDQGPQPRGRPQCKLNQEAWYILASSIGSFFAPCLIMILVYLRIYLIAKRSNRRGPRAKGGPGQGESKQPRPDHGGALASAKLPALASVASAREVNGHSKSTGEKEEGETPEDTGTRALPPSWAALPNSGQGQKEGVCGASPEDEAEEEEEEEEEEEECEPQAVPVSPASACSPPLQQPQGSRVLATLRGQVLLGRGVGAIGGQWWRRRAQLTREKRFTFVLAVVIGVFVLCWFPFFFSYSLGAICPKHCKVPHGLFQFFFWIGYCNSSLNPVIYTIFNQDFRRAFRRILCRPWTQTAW
Cannabinoid CB2, sequence (P34972 whole entry): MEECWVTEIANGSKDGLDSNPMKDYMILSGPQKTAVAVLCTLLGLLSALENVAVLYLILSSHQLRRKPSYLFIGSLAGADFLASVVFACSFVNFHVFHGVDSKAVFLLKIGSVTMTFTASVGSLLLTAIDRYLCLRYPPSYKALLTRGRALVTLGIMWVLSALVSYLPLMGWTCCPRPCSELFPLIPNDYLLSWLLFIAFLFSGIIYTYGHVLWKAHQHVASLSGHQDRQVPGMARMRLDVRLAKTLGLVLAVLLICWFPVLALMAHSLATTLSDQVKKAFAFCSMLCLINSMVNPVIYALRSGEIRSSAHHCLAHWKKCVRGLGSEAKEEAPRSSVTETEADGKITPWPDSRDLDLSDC
Melanocortin MC1, sequence (Q01726 whole entry): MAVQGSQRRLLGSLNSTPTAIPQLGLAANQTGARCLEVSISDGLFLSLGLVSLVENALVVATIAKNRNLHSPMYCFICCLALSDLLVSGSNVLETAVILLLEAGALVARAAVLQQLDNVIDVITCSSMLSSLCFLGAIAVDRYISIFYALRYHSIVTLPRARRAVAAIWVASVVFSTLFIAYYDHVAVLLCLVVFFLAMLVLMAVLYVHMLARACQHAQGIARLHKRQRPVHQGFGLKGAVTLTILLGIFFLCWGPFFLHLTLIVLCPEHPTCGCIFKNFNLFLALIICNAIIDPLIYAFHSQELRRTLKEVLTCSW
Transporter, Serotonin (5-Hydroxytryptamine) (SERT), sequence (P31645 whole entry): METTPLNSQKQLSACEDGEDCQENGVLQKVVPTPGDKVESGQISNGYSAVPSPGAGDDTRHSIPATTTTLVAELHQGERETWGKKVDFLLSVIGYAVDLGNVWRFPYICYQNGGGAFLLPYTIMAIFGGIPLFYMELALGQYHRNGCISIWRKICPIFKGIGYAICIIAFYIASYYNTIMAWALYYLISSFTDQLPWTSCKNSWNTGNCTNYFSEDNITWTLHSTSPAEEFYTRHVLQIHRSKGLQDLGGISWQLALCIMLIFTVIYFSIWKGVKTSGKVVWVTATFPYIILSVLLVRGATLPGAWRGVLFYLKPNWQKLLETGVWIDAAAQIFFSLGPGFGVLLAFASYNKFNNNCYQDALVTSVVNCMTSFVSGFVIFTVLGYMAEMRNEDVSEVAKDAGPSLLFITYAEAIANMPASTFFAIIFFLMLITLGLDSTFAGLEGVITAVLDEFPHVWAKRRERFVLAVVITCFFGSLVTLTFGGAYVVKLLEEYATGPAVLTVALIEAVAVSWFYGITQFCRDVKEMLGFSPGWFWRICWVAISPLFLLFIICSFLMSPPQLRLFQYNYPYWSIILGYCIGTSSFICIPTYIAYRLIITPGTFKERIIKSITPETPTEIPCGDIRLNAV
Angiotensin AT1, sequence (P30556 whole entry): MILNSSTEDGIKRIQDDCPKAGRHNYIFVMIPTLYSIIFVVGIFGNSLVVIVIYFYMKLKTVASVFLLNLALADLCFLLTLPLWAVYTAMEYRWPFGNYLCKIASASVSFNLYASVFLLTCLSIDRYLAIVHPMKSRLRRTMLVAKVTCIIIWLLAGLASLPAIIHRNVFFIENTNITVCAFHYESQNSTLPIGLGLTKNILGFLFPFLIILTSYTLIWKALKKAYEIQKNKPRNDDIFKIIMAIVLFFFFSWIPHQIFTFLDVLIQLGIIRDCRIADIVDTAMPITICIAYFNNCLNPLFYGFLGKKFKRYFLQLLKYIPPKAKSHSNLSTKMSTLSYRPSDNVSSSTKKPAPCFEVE
Protein Tyrosine Kinase, Insulin Receptor, sequence (P06213 28-1382): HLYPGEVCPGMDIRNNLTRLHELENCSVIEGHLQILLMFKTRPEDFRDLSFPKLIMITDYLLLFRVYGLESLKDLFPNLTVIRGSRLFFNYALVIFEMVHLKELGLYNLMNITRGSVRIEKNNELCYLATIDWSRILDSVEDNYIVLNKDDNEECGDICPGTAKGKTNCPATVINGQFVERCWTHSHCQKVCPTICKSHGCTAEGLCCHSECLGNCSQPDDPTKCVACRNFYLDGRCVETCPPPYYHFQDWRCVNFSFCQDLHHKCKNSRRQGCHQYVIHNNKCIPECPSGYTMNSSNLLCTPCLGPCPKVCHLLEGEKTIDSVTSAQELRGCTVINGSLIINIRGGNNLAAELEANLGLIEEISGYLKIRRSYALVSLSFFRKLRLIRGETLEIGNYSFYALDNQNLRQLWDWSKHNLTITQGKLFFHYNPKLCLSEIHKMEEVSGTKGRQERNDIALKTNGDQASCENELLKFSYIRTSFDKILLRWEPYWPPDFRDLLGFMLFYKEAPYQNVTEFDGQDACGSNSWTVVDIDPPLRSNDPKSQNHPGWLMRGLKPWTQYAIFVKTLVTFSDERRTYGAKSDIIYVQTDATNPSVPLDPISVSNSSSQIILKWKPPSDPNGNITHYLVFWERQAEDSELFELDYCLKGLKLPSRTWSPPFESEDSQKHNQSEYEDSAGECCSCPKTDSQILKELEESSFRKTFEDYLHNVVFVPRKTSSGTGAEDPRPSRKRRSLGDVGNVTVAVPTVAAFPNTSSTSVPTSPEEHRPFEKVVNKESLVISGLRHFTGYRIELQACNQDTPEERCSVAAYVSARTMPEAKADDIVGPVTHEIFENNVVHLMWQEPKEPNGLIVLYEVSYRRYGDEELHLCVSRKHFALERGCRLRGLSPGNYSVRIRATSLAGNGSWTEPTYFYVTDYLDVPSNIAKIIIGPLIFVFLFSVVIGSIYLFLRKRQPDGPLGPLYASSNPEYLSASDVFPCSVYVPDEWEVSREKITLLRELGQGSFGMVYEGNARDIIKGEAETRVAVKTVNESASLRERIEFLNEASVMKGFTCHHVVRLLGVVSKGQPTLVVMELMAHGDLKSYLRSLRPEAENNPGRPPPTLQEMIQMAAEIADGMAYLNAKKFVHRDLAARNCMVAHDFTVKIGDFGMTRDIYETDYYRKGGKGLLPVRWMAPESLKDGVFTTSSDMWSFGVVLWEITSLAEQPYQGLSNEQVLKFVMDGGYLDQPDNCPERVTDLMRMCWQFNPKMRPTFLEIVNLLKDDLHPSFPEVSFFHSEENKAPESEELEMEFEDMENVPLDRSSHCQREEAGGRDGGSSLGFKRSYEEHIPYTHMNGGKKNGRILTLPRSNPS
Opiate μ (OP3, MOP), sequence (P35372 whole entry): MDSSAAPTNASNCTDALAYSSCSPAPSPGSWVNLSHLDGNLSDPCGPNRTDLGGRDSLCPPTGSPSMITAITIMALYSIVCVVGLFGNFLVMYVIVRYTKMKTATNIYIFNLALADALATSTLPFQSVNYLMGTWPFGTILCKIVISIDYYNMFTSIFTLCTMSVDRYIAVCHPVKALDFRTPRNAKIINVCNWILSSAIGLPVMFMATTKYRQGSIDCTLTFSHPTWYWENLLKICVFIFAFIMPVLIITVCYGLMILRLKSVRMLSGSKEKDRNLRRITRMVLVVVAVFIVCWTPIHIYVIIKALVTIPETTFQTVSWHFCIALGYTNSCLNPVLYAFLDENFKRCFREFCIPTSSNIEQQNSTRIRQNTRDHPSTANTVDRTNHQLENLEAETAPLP
Tachykinin NK1, sequence (P25103 whole entry): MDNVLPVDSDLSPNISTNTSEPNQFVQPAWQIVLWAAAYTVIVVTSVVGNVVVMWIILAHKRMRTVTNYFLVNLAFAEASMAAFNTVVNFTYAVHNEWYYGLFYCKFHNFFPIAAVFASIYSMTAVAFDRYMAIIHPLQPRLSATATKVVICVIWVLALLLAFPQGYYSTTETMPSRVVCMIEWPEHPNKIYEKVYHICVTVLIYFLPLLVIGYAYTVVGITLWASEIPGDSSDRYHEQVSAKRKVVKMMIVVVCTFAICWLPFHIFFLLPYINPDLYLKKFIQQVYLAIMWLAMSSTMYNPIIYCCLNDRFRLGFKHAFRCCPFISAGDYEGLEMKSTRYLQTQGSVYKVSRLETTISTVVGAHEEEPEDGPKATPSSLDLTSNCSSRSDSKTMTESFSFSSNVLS
Peptidase, CTSG (Cathepsin G), sequence (P08311 21-244): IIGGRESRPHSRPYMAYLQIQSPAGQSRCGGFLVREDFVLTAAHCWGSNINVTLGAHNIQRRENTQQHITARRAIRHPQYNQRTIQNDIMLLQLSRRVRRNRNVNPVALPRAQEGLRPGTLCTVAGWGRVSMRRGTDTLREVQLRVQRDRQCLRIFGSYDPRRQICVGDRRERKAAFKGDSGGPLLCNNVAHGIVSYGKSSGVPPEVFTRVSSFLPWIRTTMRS

COc1ccc(CN2CCN(CCO)CC2)c(OC)c1OC [CV-8814, 2-(4-(2,3,4-trimethoxybenzyl)piperazin-1-yl)ethan-1-01]
< 50%: all assays above
